Laboratory results published in PubChem BioAssay (NCI).
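The compound was tested at five concentrations on cells cultured in 96-well plates, with a 48-hour exposure period. GI50 = concentration required for 50% inhibition of growth. Definition used: TGI = concentration required for complete inhibition of growth.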

Assays:
Assay in all cases: growth of human tumour cells (NCI), 48 h
T-47D breast = test system: T-47D breast
LOX IMVI melanoma = test system: LOX IMVI melanoma
SF-268 CNS = test system: SF-268 CNS
HCT-15 colon = test system: HCT-15 colon
KM12 colon = test system: KM12 colon
MOLT-4 leukemia = test system: MOLT-4 leukemia
HOP-62 NSCLC = test system: HOP-62 NSCLC
SW-620 colon = test system: SW-620 colon
SNB-75 CNS = test system: SNB-75 CNS
MCF7 breast = test system: MCF7 breast
HCC-2998 colon = test system: HCC-2998 colon
SK-MEL-28 melanoma = test system: SK-MEL-28 melanoma
DU-145 prostate = test system: DU-145 prostate
OVCAR-3 ovarian = test system: OVCAR-3 ovarian
SK-OV-3 ovarian = test system: SK-OV-3 ovarian
MDA-MB-435 = test system: MDA-MB-435
SNB-19 CNS = test system: SNB-19 CNS
CAKI-1 renal = test system: CAKI-1 renal
A498 renal = test system: A498 renal
RXF 393 renal = test system: RXF 393 renal
NCI/ADR-RES ovarian = test system: NCI/ADR-RES ovarian
UO-31 renal = test system: UO-31 renal
OVCAR-8 ovarian = test system: OVCAR-8 ovarian
SN12C renal = test system: SN12C renal
UACC-257 melanoma = test system: UACC-257 melanoma
OVCAR-4 ovarian = test system: OVCAR-4 ovarian
ACHN renal = test system: ACHN renal
U251 CNS = test system: U251 CNS
SK-MEL-5 melanoma = test system: SK-MEL-5 melanoma
TK-10 renal = test system: TK-10 renal
PC-3 prostate = test system: PC-3 prostate
HT29 colon = test system: HT29 colon
EKVX NSCLC = test system: EKVX NSCLC
M14 melanoma = test system: M14 melanoma
SK-MEL-2 melanoma = test system: SK-MEL-2 melanoma
NCI-H23 lung = test system: NCI-H23 lung
HCT-116 colon = test system: HCT-116 colon
IGROV1 ovarian = test system: IGROV1 ovarian
COLO 205 colon = test system: COLO 205 colon
NCI-H226 lung = test system: NCI-H226 lung
HOP-92 NSCLC = test system: HOP-92 NSCLC
RPMI-8226 leukemia = test system: RPMI-8226 leukemia
BT-549 breast = test system: BT-549 breast
NCI-H460 lung = test system: NCI-H460 lung
SF-539 CNS = test system: SF-539 CNS
HS 578T breast = test system: HS 578T breast
CCRF-CEM leukemia = test system: CCRF-CEM leukemia
K-562 leukemia = test system: K-562 leukemia
SR leukemia = test system: SR leukemia
MDA-MB-231 breast = test system: MDA-MB-231 breast
786-0 renal = test system: 786-0 renal
HL-60(TB) leukemia = test system: HL-60(TB) leukemia
A549 NSCLC = test system: A549 NSCLC
OVCAR-5 ovarian = test system: OVCAR-5 ovarian
SF-295 CNS = test system: SF-295 CNS
NCI-H522 lung = test system: NCI-H522 lung
UACC-62 melanoma = test system: UACC-62 melanoma
MALME-3M melanoma = test system: MALME-3M melanoma

CCCCCCOc1ccc(/C=N/Nc2cc(C)nc3ccc(Br)cc23)cc1
GI50 (T-47D breast): 1820 nM | TGI (T-47D breast): 3720 nM | GI50 (LOX IMVI melanoma): 1530 nM | TGI (LOX IMVI melanoma): 2900 nM | GI50 (SF-268 CNS): 2070 nM | TGI (SF-268 CNS): 4240 nM | GI50 (HCT-15 colon): 1520 nM | TGI (HCT-15 colon): 2880 nM | GI50 (KM12 colon): 1800 nM | TGI (KM12 colon): 3500 nM | GI50 (MOLT-4 leukemia): 1200 nM | TGI (MOLT-4 leukemia): 3180 nM | GI50 (HOP-62 NSCLC): 1470 nM | TGI (HOP-62 NSCLC): 2940 nM | GI50 (SW-620 colon): 1560 nM | TGI (SW-620 colon): 3560 nM | GI50 (SNB-75 CNS): 1840 nM | TGI (SNB-75 CNS): 3460 nM | GI50 (MCF7 breast): 1640 nM | TGI (MCF7 breast): 3350 nM | GI50 (HCC-2998 colon): 2030 nM | TGI (HCC-2998 colon): 3560 nM | GI50 (SK-MEL-28 melanoma): 1810 nM | TGI (SK-MEL-28 melanoma): 3240 nM | GI50 (DU-145 prostate): 1920 nM | TGI (DU-145 prostate): 3700 nM | GI50 (OVCAR-3 ovarian): 1940 nM | TGI (OVCAR-3 ovarian): 3650 nM | GI50 (SK-OV-3 ovarian): 1660 nM | TGI (SK-OV-3 ovarian): 3070 nM | GI50 (MDA-MB-435): 1730 nM | TGI (MDA-MB-435): 3160 nM | GI50 (SNB-19 CNS): 1830 nM | TGI (SNB-19 CNS): 3430 nM | GI50 (CAKI-1 renal): 1660 nM | TGI (CAKI-1 renal): 3040 nM | GI50 (A498 renal): 1580 nM | TGI (A498 renal): 3090 nM | GI50 (RXF 393 renal): 1550 nM | TGI (RXF 393 renal): 2950 nM | GI50 (NCI/ADR-RES ovarian): 1900 nM | TGI (NCI/ADR-RES ovarian): 3840 nM | GI50 (UO-31 renal): 1530 nM | TGI (UO-31 renal): 2890 nM | GI50 (OVCAR-8 ovarian): 2070 nM | TGI (OVCAR-8 ovarian): 4120 nM | GI50 (SN12C renal): 1690 nM | TGI (SN12C renal): 3170 nM | GI50 (UACC-257 melanoma): 1950 nM | TGI (UACC-257 melanoma): 3650 nM | GI50 (OVCAR-4 ovarian): 1810 nM | TGI (OVCAR-4 ovarian): 3460 nM | GI50 (ACHN renal): 1740 nM | TGI (ACHN renal): 3110 nM | GI50 (U251 CNS): 1870 nM | TGI (U251 CNS): 3360 nM | GI50 (SK-MEL-5 melanoma): 1670 nM | TGI (SK-MEL-5 melanoma): 3040 nM | GI50 (TK-10 renal): 1930 nM | TGI (TK-10 renal): 3360 nM | GI50 (PC-3 prostate): 1650 nM | TGI (PC-3 prostate): 3230 nM | GI50 (HT29 colon): 1630 nM | TGI (HT29 colon): 3120 nM | GI50 (EKVX NSCLC): 1720 nM | TGI (EKVX NSCLC): 3140 nM | GI50 (M14 melanoma): 1670 nM | TGI (M14 melanoma): 3080 nM | GI50 (SK-MEL-2 melanoma): 1780 nM | TGI (SK-MEL-2 melanoma): 3320 nM | GI50 (NCI-H23 lung): 1780 nM | TGI (NCI-H23 lung): 3430 nM | GI50 (HCT-116 colon): 850 nM | TGI (HCT-116 colon): 2110 nM | GI50 (IGROV1 ovarian): 1750 nM | TGI (IGROV1 ovarian): 3450 nM | GI50 (COLO 205 colon): 1850 nM | TGI (COLO 205 colon): 3510 nM | GI50 (NCI-H226 lung): 1600 nM | TGI (NCI-H226 lung): 3160 nM | GI50 (HOP-92 NSCLC): 1450 nM | TGI (HOP-92 NSCLC): 2970 nM | GI50 (RPMI-8226 leukemia): 1860 nM | TGI (RPMI-8226 leukemia): 4060 nM | GI50 (BT-549 breast): 1910 nM | TGI (BT-549 breast): 3910 nM | GI50 (NCI-H460 lung): 1940 nM | TGI (NCI-H460 lung): 3880 nM | GI50 (SF-539 CNS): 1870 nM | TGI (SF-539 CNS): 3290 nM | GI50 (HS 578T breast): 2160 nM | TGI (HS 578T breast): 4490 nM | GI50 (CCRF-CEM leukemia): 1710 nM | TGI (CCRF-CEM leukemia): 3970 nM | GI50 (K-562 leukemia): 1070 nM | TGI (K-562 leukemia): 2960 nM | GI50 (SR leukemia): 396 nM | TGI (SR leukemia): 1850 nM | GI50 (MDA-MB-231 breast): 1620 nM | TGI (MDA-MB-231 breast): 3080 nM | GI50 (786-0 renal): 1710 nM | TGI (786-0 renal): 3180 nM | GI50 (HL-60(TB) leukemia): 1290 nM | TGI (HL-60(TB) leukemia): 3260 nM | GI50 (A549 NSCLC): 1780 nM | TGI (A549 NSCLC): 3430 nM | GI50 (OVCAR-5 ovarian): 1940 nM | TGI (OVCAR-5 ovarian): 3360 nM | GI50 (SF-295 CNS): 1720 nM | TGI (SF-295 CNS): 3200 nM | GI50 (NCI-H522 lung): 1700 nM | TGI (NCI-H522 lung): 3320 nM | GI50 (UACC-62 melanoma): 1740 nM | TGI (UACC-62 melanoma): 3240 nM | GI50 (MALME-3M melanoma): 1870 nM | TGI (MALME-3M melanoma): 3380 nM
